# Patent publication US9737622B2, “Compounds modulators of VEGF activity and uses thereof” (ADVANCED ACCELERATOR APPLICATIONS S.A., priority 2009, dated 2017)
# Entries after “also recorded” stand apart in the source; their conditions may differ. Bridge positions count the residues as written; N and C are the ends. Ends that are not written are not given here.
# Experiments:
# VEGF receptors = assay: Biological and in vivo assays, summary of angiogenic activity; conditions: summary statement
# Description: The compounds have application in diagnosis and treatment of pathologies depending on angiogenesis, especially they can be used in therapy of […].
# HUVEC cells [1] = assay: Caspase 3 fluorimetric assay in serum-starved HUVEC; type: cell-based, human; conditions: for effect of VEGF on caspase-3 activity (rescue) when peptide is added: in presence of VEGF, 8 hours
# Experimental: Determination of caspase-3 activity was performed by a fluorometric assay based on the proteolytic cleavage of the AMC-derived substrate N-acetil-DEVD-AMC, which yields a fluorescent product.
# HUVEC cells were plated in 6-well dishes at 1×10^5 cells/cm^2. On the next day, cells were treated, in starvation medium (EBM-2, heparin 0.1%, BSA 0.1%), with Pep #3 (25-100 ng/ml) or scrambled Pep RND (100 ng/ml) peptides for 8 h at 37° C. VEGF165 (R & D Systems, Minneapolis, Minn., USA), 25 ng/ml, was used as positive control.
# After 8 h the cells were processed with 150 μl of Caspase-3 reaction buffer (HEPES pH 7.5 50 mM, EDTA 0.1 mM, NP-40 0.1%, CHAPS 0.1%, DTT 1 mM) and cell proteins collected after centrifugation at 13000 rpm for 15 min at 4° C. Protein concentrations were determined by Bradford method (Bio-Rad, Hercules, Calif.) and 20 μg of lysates were incubated in 96-well plates with 20 μM N-acetil-DEVD-AMC at 37° C. for 3 h.
# Samples were analyzed using a microplate reader (L55 Luminescence Spectometrer Perkin Elmer Instruments) (excitation: 360 nm, emission: 440 nm).
# To investigate the biological activity of the designed peptides the authors analyzed the activation of caspase 3 in human primary endothelial (HUVEC) cells serum-deprived by means of a caspase-3 fluorimetric assay. It is well known that VEGF act as survival factor for ECs. […] Experiments were performed on serum starved HUVEC treated with designed peptides in presence or absence of VEGF in order to highlight an antagonist or agonist (VEGF-like) activity respectively. The biological activity of the analyzed compounds is reported as percentage of VEGF rescue (FIG. 1). The decrease of the caspase-3 activity following VEGF incubation is set to 100% rescue.
# ERK1/2 = assay: Western blot of phospho ERK1/2 in HUVEC; type: cell-based, human
# Experimental: Cells were plated in 12-well dishes at 1×10^5 cells/cm^2. On the next day, cells were treated, in starvation medium (EBM-2, heparin 0.1%, BSA 0.1%) with Pep #3 (25-100 ng/ml) or Pep RND (100 ng/ml) peptides for 15 min and 30 min at 37° C. VEGF165 (R & D Systems, Minneapolis, Minn., USA) 25 ng/ml was used as positive control. After treatment, whole cell lysates were obtained by using RIPA lysis buffer (Tris 50 mM pH 7.5, NaCl 150 mM, NP-40 1%, EGTA 1 mM, SDS 0.05%) supplemented with Complete Protease Inhibitors and Phosphate Inhibitors (Pierce Biotechnology, Rockford, Ill.). Cell proteins were then collected after centrifugation and protein content was determined by Bradford method (Bio-Rad, Hercules, Calif.). Proteins were separated by electrophoresis on SDS-polyacrylamide gels and transferred to nitrocellulose membrane (Millipore Corp., Bedford, Mass.) by semi-dry electroblotting (Transblot; Bio-Rad Laboratories, Hercules, Calif.).
# The serine-tyrosine-phosphorilated ERK1/2 (polyclonal antibody, Cell Signaling Technology, Inc. Danvers, Mass., USA) and aGAPDH (monoclonal antibody 6C5, Santa Cruz Biotechnology, Inc., Santa Cruz, Calif.) were visualized by specific antibodies, anti-rabbit and anti-mouse horseradish peroxidase-conjugated secondary antibody (Jackson Immunoresearch Laboratories, Inc, Baltimor Pike; Pa., USA) standard chemiluminescence (Pierce Biotechnology, Rockford, Ill.).
# VEGF-modulated angiogenesis is largely ERK1/2-dependent, leading to DNA synthesis and cell proliferation. […] The authors therefore investigated whether peptide #3 could also induce ERK and AKT activation like VEGF. […] Scrambled Pep-RND had no effect on ERK1/2 and AKT activation, proving that it is unable to activate intracellular signaling (FIG. 2A).
# AKT = assay: Western blot of phospho AKT in HUVEC; type: cell-based, human; conditions: serum deprivation, 15 and 30 min, peptide #3 25-100 ng/ml, Pep-RND 100 ng/ml
# Experimental: Cells were plated in 12-well dishes at 1×10^5 cells/cm^2. On the next day, cells were treated, in starvation medium (EBM-2, heparin 0.1%, BSA 0.1%) with Pep #3 (25-100 ng/ml) or Pep RND (100 ng/ml) peptides for 15 min and 30 min at 37° C. VEGF165 (R & D Systems, Minneapolis, Minn., USA) 25 ng/ml was used as positive control. After treatment, whole cell lysates were obtained by using RIPA lysis buffer (Tris 50 mM pH 7.5, NaCl 150 mM, NP-40 1%, EGTA 1 mM, SDS 0.05%) supplemented with Complete Protease Inhibitors and Phosphate Inhibitors (Pierce Biotechnology, Rockford, Ill.). Cell proteins were then collected after centrifugation and protein content was determined by Bradford method (Bio-Rad, Hercules, Calif.). Proteins were separated by electrophoresis on SDS-polyacrylamide gels and transferred to nitrocellulose membrane (Millipore Corp., Bedford, Mass.) by semi-dry electroblotting (Transblot; Bio-Rad Laboratories, Hercules, Calif.). […]
# RB protein = assay: Western blot of RB phosphorylation in HUVEC; type: cell-based, human; conditions: 24 hours, Pep #3 10-100 ng/ml, VEGF165 25 ng/ml, Pep RND 100 ng/ml
# Experimental: FIG. 3—A) HUVEC cells were incubated in starvation medium (EBM-2, 0.1% heparin, 0.1% BSA) alone or in presence of VEGF165 (25 ng/ml) or with indicated concentrations of Pep #3 or Pep RND (100 ng/ml), for 24, 48 and 72 hours at 37° C. in 5% CO2 atmosphere. Cells were then incubated with CyQUANT® NF reagent for 1 hour at 37° C. and fluorescence intensities of quadruplicate samples were measured with a fluorescence microplate reader using excitation at 485 nm and fluorescence detection at 530 nm. In graph values are calculated as % of proliferating cells compared to controls (untreated cells) at 24, 48 and 72 hours. B) ERK1/2 phosphorylation and phospho-RB was evaluated at 24 hr after stimulation with Pep #3 (10-25-50 and 100 ng/ml), VEGF165 (25 ng/ml) and Pep RND (100 ng/ml). Anti-ERK1/2 and anti-GAPDH antibodies were used as loading control
# As a marker of cell proliferation, the RB phosphorylation status was also checked in the same experimental conditions. RB protein, in fact, is able to regulate proliferation by controlling cell cycle progression through the restriction point within the G1 and S phases.
# HUVEC cells [2] = assay: Cell proliferation assay (CyQUANT NF); type: cell-based, human
# Experimental: HUVEC cells were plated at density of 1200 cells/well in 96-well poly-D-lysine-coated microplates (Becton Dickinson, Franklin Lakes, N.J. USA). After 24 hours incubation in starvation medium (EBM-2, heparin 0.1%, BSA 0.1%), cells were treated with VEGF165 25 ng/ml (R & D Systems, Minneapolis, Minn., USA), with Pep #3 (10-25-50-100 ng/ml) or Pep RND (100 ng/ml). Cell proliferation was determined by using CyQUANT® NF Cell Proliferation Assay Kit (Molecular Probes, Invitrogen S.R.L., Milano, Italy) at 24, 48 and 72 hour after treatment. CyQUANT® NF assay is based on cellular DNA content measurement via fluorescent dye binding. Because cellular DNA content is highly regulated, it is closely proportional to cell number. Briefly, medium was removed and cells incubated with CyQUANT NF reagent for 1 hour at 37° C. according to the manufacturer's instructions. Plates were then analyzed by using a microplate reader (L55 Luminescence Spectometrer Perkin Elmer Instruments) (excitation: 485 nm, emission: 520 nm).
# To evaluate whether peptide #3 induces cellular proliferation, a cell proliferation assay was performed on HUVEC cells treated, in serum deprivation conditions, with pep #3 (10-25-50-100 ng/ml) or Pep RND (100 ng/ml). After 24, 48 and 72 hours of treatment cell proliferation was measured by CyQUANT® NF Cell Proliferation Assay Kit. […] This effect is evident at 24, 48 and 72 hours. […]
# blood vessel development = assay: Directed In Vivo Angiogenesis Angioreactor (DIVAA); design: species or system CD1 mice; conditions: mice, 21 days
# Experimental: Female CD1 mice (20-25 g) were supplied by Charles-River (Italy) and kept in temperature- and humidity-controlled rooms (22° C., 50%) with lights on from 07:00 to 19:00 h, water and food available ad libitum. All procedures were carried out in accordance with the Italian law (Legislative Decree no. 116, 27 Jan. 1992), which acknowledges the European Directive 86/609/EEC, and were fully compliant with GlaxoSmithKline policy on the care and use of laboratory animal and codes of practice. Furthermore, all efforts were made to minimize the number of animals used and their suffering.
# Sterile silicone cylinders closed at one end, called angioreactors (Cultrex, Trevigen, Inc. Helgerman Conn., Gaithersburg), were filled with 20 μL of basement membrane extract (BME) premixed with or without angiogenesis factors (VEGF, FGF) to obtain positive and negative controls respectively. […]
# Vessel formation evaluation was performed after 21 days. […] Subsequently, cells were incubated with FITC-Lectin reagent (available in the kit) and then observed by fluorescence microscope (ZEISS, German).
# Pro-angiogenic peptide #3 activity was also assayed in an in vivo test using DIVAA (Directed in Vivo Angiogenesis Angioreactor). DIVAA test is performed by implanting angioreactors into the dorsal flank of mice; this allows a quantitative assessment of blood vessel development. […]
sequence,measurement,setting,value
KQIMWIKPHQGQWIYTS (prepared by chemical synthesis) [compound 1],angiogenic biological activity (pro- or anti-),VEGF receptors,antiangiogenic activity
KQLLWIRSGDRPWYYTS (prepared by chemical synthesis) [Peptide #3],caspase-3 activity (rescue from apoptosis),"HUVEC cells [1]; 8 hour, without added VEGF, peptide #3 25 ng/ml and 100 ng/ml, vs untreated and Pep-RND-treated cells",significantly decreased
same,ERK1/2 activation after 24 hours of treatment,"ERK1/2; HUVEC, 24 hours, Pep #3 10-100 ng/ml, VEGF165 25 ng/ml",confirmed ERK1/2 activation
same,ERK1/2 activation (phospho ERK1/2),"ERK1/2; HUVEC, serum deprivation, 15 and 30 min, peptide #3 25-100 ng/ml, Pep-RND 100 ng/ml",displayed ERK1/2 and AKT activation
same,AKT activation (phospho AKT),AKT,displayed ERK1/2 and AKT activation
same,RB phosphorylation,RB protein,enhanced RB phosphorylation
same,cell proliferation at 25 and 50 ng/ml,"HUVEC cells [2]; 25 and 50 ng/ml, 48 and 72 hours",Considerable effects
same,cell proliferation,"HUVEC cells [2]; serum deprivation, 24, 48 and 72 hours, pep #3 10-25-50-100 ng/ml, Pep RND 100 ng/ml","able to induce, in a dose dependent manner, cell proliferation"
same,induction of new vessel formation with respect to negative controls,"blood vessel development; 100 ng/ml, FITC-lectin positive cells",3.8 fold
same,blood vessels development / new vessel formation in angioreactors,"blood vessel development; subcutaneous angioreactors, peptide #3 100 ng/ml",Blood vessels development was observed; also recorded: new vessel formation was observed
same,angiogenic biological activity (pro- or anti-),VEGF receptors,proangiogenic biological activity
KQCLWIRSGDRPWYCTS (disulfide 3-15 (inferred)) [Peptide #4],effect of VEGF on caspase-3 activity (rescue) when peptide is added,HUVEC cells [1],partially abolished
same,ERK 1/2 activation of VEGF stimulated HUVE cells,"ERK1/2; 100 ng/mL, 30 min, VEGF 25 ng/ml",dramatically reduces
same,biological effect (ERK1/2 activation) on untreated HUVE cells,"ERK1/2; 100 ng/mL, 30 min, no VEGF",does not show any biological effect
same,angiogenic biological activity (pro- or anti-),VEGF receptors,antiangiogenic activity
KQCMWIKPHQGQWTCTS (disulfide 3-15 (inferred)) [compound 2],effect of VEGF on caspase-3 activity (rescue) when peptide is added,HUVEC cells [1],partially abolished
same,angiogenic biological activity (pro- or anti-),VEGF receptors,antiangiogenic activity
